IC50 data for 31 compounds are collected here from patent US9926282B2, “Phthalazinones and isoquinolinones as rock inhibitors” (BRISTOL-MYERS SQUIBB COMPANY, priority 2013, dated 2018).

What is called IC50 is the concentration at which inhibition is half-maximal.

The target in experiment [1] is ROCK1 (Homo sapiens (Human), UniProt Q13464). As to the kind of experiment: ROCK assay (LABCHIP peptide phosphorylation), ROCK1. The note with it: 5 μM ATP, 1.5 μM peptide substrate; read-out: ROCK1 IC50. Type of experiment: biochemical.
ROCK1, sequence (Q13464 whole entry, species assumed): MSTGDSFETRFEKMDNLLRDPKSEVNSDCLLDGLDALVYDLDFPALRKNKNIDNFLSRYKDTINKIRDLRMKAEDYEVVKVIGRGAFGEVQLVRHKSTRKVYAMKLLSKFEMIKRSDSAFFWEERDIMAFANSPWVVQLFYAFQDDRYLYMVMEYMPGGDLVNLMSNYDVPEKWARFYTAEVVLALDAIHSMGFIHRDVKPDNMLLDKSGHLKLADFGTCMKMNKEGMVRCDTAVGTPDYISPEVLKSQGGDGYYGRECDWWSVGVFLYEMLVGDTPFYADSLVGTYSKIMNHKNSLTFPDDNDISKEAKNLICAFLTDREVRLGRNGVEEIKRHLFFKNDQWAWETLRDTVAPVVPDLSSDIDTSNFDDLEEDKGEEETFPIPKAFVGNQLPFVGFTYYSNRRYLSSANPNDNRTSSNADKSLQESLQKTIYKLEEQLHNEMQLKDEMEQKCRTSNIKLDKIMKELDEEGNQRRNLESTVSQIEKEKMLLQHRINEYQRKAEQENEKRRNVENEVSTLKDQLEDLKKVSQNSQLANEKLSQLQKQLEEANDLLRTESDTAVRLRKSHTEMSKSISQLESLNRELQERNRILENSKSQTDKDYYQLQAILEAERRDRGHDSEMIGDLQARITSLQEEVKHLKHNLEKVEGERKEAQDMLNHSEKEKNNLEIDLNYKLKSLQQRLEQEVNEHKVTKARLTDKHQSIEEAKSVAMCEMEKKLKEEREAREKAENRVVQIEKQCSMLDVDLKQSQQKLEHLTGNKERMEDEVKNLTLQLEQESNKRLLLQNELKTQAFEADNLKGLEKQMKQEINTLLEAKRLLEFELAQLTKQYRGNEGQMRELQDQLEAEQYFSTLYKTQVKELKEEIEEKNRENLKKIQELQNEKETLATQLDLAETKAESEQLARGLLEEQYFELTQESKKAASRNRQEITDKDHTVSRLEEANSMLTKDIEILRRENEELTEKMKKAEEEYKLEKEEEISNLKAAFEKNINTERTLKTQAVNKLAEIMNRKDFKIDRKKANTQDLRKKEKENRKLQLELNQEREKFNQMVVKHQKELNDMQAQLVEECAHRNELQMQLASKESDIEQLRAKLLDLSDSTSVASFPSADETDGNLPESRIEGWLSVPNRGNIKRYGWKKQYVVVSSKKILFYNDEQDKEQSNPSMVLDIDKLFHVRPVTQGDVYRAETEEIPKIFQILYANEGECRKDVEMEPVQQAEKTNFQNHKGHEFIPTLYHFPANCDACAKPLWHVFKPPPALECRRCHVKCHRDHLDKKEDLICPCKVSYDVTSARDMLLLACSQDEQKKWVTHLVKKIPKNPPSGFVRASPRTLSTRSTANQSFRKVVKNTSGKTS
In experiment [2] the target is ROCK2 (Homo sapiens (Human), UniProt O75116). In words: ROCK assay (LABCHIP peptide phosphorylation), ROCK2. It is filed as biochemical. The note with it: 5 μM ATP, 1.5 μM peptide substrate.
ROCK2, sequence (O75116 whole entry, species assumed): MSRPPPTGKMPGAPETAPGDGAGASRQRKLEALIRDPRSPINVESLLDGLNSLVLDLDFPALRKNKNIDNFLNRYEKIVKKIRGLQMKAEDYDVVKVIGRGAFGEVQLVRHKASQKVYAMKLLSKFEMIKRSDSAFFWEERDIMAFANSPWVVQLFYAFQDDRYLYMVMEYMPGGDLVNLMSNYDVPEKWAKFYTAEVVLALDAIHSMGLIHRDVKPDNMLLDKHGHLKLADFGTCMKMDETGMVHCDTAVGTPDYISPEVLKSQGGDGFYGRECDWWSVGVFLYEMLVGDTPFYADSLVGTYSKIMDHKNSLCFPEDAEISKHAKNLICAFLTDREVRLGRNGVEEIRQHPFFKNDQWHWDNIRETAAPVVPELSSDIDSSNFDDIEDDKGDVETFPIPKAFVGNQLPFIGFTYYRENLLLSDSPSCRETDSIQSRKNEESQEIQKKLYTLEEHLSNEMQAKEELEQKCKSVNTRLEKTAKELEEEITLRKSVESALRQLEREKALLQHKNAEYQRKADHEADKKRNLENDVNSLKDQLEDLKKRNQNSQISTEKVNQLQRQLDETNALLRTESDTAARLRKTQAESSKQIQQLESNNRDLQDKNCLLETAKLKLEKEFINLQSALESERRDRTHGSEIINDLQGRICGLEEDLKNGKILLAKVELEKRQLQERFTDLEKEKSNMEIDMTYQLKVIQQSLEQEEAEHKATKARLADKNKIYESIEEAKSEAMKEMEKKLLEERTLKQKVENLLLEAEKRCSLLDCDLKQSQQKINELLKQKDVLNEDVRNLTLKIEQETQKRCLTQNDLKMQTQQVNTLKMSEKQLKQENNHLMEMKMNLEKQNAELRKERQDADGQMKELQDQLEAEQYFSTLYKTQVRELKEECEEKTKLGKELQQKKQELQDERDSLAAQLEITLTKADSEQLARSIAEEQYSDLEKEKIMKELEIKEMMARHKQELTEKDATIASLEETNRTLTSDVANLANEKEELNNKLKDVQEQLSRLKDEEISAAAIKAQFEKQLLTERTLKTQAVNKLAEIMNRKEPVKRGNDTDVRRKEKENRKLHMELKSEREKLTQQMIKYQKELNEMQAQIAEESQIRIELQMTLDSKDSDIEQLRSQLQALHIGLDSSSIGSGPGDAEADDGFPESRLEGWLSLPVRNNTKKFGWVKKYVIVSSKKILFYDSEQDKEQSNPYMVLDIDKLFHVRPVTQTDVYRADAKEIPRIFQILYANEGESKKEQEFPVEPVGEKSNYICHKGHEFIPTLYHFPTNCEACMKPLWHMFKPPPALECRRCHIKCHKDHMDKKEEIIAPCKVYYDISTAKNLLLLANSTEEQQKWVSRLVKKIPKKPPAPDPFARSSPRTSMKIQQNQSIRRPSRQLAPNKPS

Regarding `CC(C)(O)Cn1cc(C(=O)Nc2ccc(-c3n[nH]c(=O)c4ccccc34)cc2)c2cccnc21` [Example 169, 1-(2-hydroxy-2-methylpropyl)-N-[4-(4-oxo-3,4-dihydrophthalazin-1-yl)phenyl]-1H-pyrrolo[2,3-b]pyridine-3-carboxamide], the IC50 in experiment [1] and in experiment [2] was 0.1 to 100 nM each time.

For the compound `Cc1cc(C(=O)Nc2ccc(-c3n[nH]c(=O)c4ccccc34)cc2)nn1C(C)(C)C` [Example 235, 1-tert-butyl-5-methyl-N-[4-(4-oxo-3,4-dihydrophthalazin-1-yl)phenyl]-1H-pyrazole-3-carboxamide], the IC50 in experiment [1] and in experiment [2] was 0.1 to 100 nM in each case.

Consider `O=C(Nc1ccc(-c2n[nH]c(=O)c3ccccc23)cc1)c1cccc(N2CCCC2)c1` [Example 62, N-[4-(4-oxo-3,4-dihydrophthalazin-1-yl)phenyl]-3-(pyrrolidin-1-yl)benzamide], for which the IC50 in experiment [1] and in experiment [2] was 0.1 to 100 nM each time.

As to `O=C(Nc1ccc(-c2c[nH]c(=O)c3ccccc23)cc1)c1nc2c(s1)CCCC2` [Example 246, N-(4-(1-Oxo-1,2-dihydroisoquinolin-4-yl)phenyl)-4,5,6,7-tetrahydrobenzo[d]thiazole-2-carboxamide], the IC50 in experiment [1] and in experiment [2] was 0.1 to 100 nM each time.

As for `O=C(Nc1ccc(-c2n[nH]c(=O)c3ccccc23)cc1)c1nc2ccccc2s1` [Example 115, N-[4-(4-oxo-3,4-dihydrophthalazin-1-yl)phenyl]-1,3-benzothiazole-2-carboxamide], the 50% inhibitory concentration (IC50) in experiment [1] and in experiment [2] was 0.1 to 100 nM each time.

Take `O=C(O)Cn1nc(C(=O)Nc2ccc(-c3n[nH]c(=O)c4ccccc34)cc2)c2ccccc21` [Example 328, 2-(3-{[4-(4-Oxo-3,4-dihydrophthalazin-1-yl)phenyl]carbamoyl}-1H-indazol-1-yl)acetic Acid]: the IC50 lay in the range of 101 to 1000 nM in experiment [1] and 0.1 to 100 nM in experiment [2].

As to `Cc1cc(CC(=O)N2CCc3ccccc32)ccc1-c1n[nH]c(=O)c2ccccc12` [Example 259, 4-(4-(2-(Indolin-1-yl)-2-oxoethyl)-2-methylphenyl)phthalazin-1(2H)-one], the IC50 in experiment [1] is 101 to 1000 nM; in experiment [2] it was 0.1 to 100 nM.

As for `O=C(Nc1ccc(-c2n[nH]c(=O)c3ccccc23)cc1)c1cnn(CC(F)F)c1` [Example 386, 1-(2,2-Difluoroethyl)-N-(4-(4-oxo-3,4-dihydrophthalazin-1-yl)phenyl)-1H-pyrazole-4-carboxamide], the IC50 lay within 101 to 1000 nM in experiment [1] and 0.1 to 100 nM in experiment [2].

As for `O=C(Cc1ccc(-c2c[nH]c(=O)c3ccccc23)cc1)N1Cc2ccccc2C1` [Example 38, 4-(4-(2-(Isoindolin-2-yl)-2-oxoethyl)phenyl)isoquinolin-1(2H)-one], the results for the IC50 in experiment [1] and in experiment [2] were 101 to 1000 nM and 0.1 to 100 nM, respectively.

Consider `O=C(Nc1ccc(-c2n[nH]c(=O)c3ccccc23)cc1)c1csc(-c2ccccc2)n1` [Example 46, N-[4-(4-oxo-3,4-dihydrophthalazin-1-yl)phenyl]-2-phenyl-1,3-thiazole-4-carboxamide], for which the IC50 lay in the range of 1000 to 50000 nM in experiment [1] and 0.1 to 100 nM in experiment [2].

Take `Cc1cc(NC(=O)N2CCc3ccccc32)ccc1-c1n[nH]c(=O)c2ccccc12` [Example 324, N-(3-Methyl-4-(4-oxo-3,4-dihydrophthalazin-1-yl)phenyl)indoline-1-carboxamide]: the IC50 in experiment [1] and in experiment [2] was 0.1 to 100 nM each time.

For the compound `Cn1nc(C(=O)Nc2ccc(-c3n[nH]c(=O)c4ccccc34)cc2)cc1OC(F)F` [Example 403, 5-(Difluoromethoxy)-1-methyl-N-(4-(4-oxo-3,4-dihydrophthalazin-1-yl)phenyl)-1H-pyrazole-3-carboxamide], the IC50 in experiment [1] and in experiment [2] was 0.1 to 100 nM in each case.

With `CN1CCN(C(=O)c2ccc3c(c2)N(C(=O)Cc2ccc(-c4n[nH]c(=O)c5ccccc45)cc2)CC3)CC1` [Example 292, 4-(4-{2-[6-(4-methylpiperazine-1-carbonyl)-2,3-dihydro-1H-indol-1-yl]-2-oxoethyl}phenyl)-1,2-dihydrophthalazin-1-one], the IC50 in experiment [1] lay in the range of 101 to 1000 nM; in experiment [2], 0.1 to 100 nM.

Consider `CN1CCN(Cc2ccc3c(c2)CN(C(=O)Cc2ccc(-c4n[nH]c(=O)c5ccccc45)cc2)C3)CC1` [Example 25], for which the results for the IC50 in experiment [1] and in experiment [2] were 101 to 1000 nM and 0.1 to 100 nM, respectively.

Consider `CC1(Cn2nc(C(=O)Nc3ccc(-c4n[nH]c(=O)c5ccccc45)cc3)c3ccccc32)COC1` [Example 145, 1-[(3-methyloxetan-3-yl)methyl]-N-[4-(4-oxo-3,4-dihydrophthalazin-1-yl)phenyl]-1H-indazole-3-carboxamide], for which the IC50 in experiment [1] and in experiment [2] was 0.1 to 100 nM in each case.

Regarding `CC(C)(O)Cn1cc(C(=O)Nc2ccc(-c3n[nH]c(=O)c4ccccc34)cc2)c2ccccc21` [Example 138, 1-(2-hydroxy-2-methylpropyl)-N-[4-(4-oxo-3,4-dihydrophthalazin-1-yl)phenyl]-1H-indole-3-carboxamide], the IC50 in experiment [1] and in experiment [2] was 0.1 to 100 nM in each case.

For the compound `COc1ccc2c(-c3ccc(NC(=O)c4cn5ccccc5n4)cc3)n[nH]c(=O)c2c1` [Example 370, N-(4-(6-Methoxy-4-oxo-3,4-dihydrophthalazin-1-yl)phenyl)imidazo[1,2-a]pyridine-2-carboxamide], the half-maximal inhibitory concentration (IC50) in experiment [1] fell in the range of 1000 to 50000 nM; in experiment [2], 0.1 to 100 nM.

In the case of `O=C(Nc1ccc(-c2n[nH]c(=O)c3ccccc23)c(CO)c1)c1nn(CC2CCOC2)c2ccccc12` (centres unmarked) [Example 355, N-(3-(Hydroxymethyl)-4-(4-oxo-3,4-dihydrophthalazin-1-yl)phenyl)-1-((tetrahydrofuran-3-yl)methyl)-1H-indazole-3-carboxamide], the results for the IC50 in experiment [1] and in experiment [2] were 1000 to 50000 nM and 0.1 to 100 nM, respectively.

For the compound `O=C(Nc1ccc(-c2n[nH]c(=O)c3ccccc23)c(CO)c1)c1nn(CC2CCOC2)c2cc(F)ccc12` (centres unmarked) [Example 368, 6-Fluoro-N-(3-(hydroxymethyl)-4-(4-oxo-3,4-dihydrophthalazin-1-yl)phenyl)-1-((tetrahydrofuran-3-yl)methyl)-1H-indazole-3-carboxamide], the IC50 in experiment [1] fell in the range of 1000 to 50000 nM; in experiment [2] it was 0.1 to 100 nM.

`COc1cc2cc(C(=O)Nc3ccc(-c4n[nH]c(=O)c5ccccc45)cc3)oc2cc1F` [Example 180, 6-fluoro-5-methoxy-N-[4-(4-oxo-3,4-dihydrophthalazin-1-yl)phenyl]-1-benzofuran-2-carboxamide]: the half-maximal inhibitory concentration (IC50) in experiment [1] and in experiment [2] was 0.1 to 100 nM each time.

As for `O=C(Nc1ccc(-c2n[nH]c(=O)c3ccccc23)cc1)c1cnn(-c2cccc(Cl)c2)c1` [Example 198, 1-(3-chlorophenyl)-N-[4-(4-oxo-3,4-dihydrophthalazin-1-yl)phenyl]-1H-pyrazole-4-carboxamide], the IC50 in experiment [1] and in experiment [2] was 0.1 to 100 nM throughout.

Consider `O=C(Nc1ccc(-c2c[nH]c(=O)c3ccccc23)cc1)c1ccc(N2CCCC2)cc1` [Example 251, N-(4-(1-Oxo-1,2-dihydroisoquinolin-4-yl)phenyl)-4-(pyrrolidin-1-yl)benzamide], for which the half-inhibitory concentration (IC50) in experiment [1] was in the range of 101 to 1000 nM; in experiment [2] it was 0.1 to 100 nM.

As to `O=C(Nc1ccc(-c2n[nH]c(=O)c3ccccc23)cc1)c1nn(CC2CCOC2)c2ccc(F)cc12` (centres unmarked) [Example 173, 5-fluoro-N-[4-(4-oxo-3,4-dihydrophthalazin-1-yl)phenyl]-1-(oxolan-3-ylmethyl)-1H-indazole-3-carboxamide], the concentration for half-maximal inhibition (IC50) in experiment [1] and in experiment [2] was 0.1 to 100 nM throughout.

Consider `O=C(Cc1ccc(-c2n[nH]c(=O)c3ccccc23)cc1)Nc1ccc2c(c1)OCCO2` [Example 24, N-(2,3-dihydro-1,4-benzodioxin-6-yl)-2-[4-(4-oxo-3,4-dihydrophthalazin-1-yl)phenyl]acetamide], for which the values for the 50% inhibitory concentration (IC50) in experiment [1] and in experiment [2] were 101 to 1000 nM and 0.1 to 100 nM, respectively.

Turning to `O=C(Cc1ccc(-c2n[nH]c(=O)c3ccccc23)cc1)N1CCc2ccc([N+](=O)[O-])cc21` [Example 285, 4-{4-[2-(6-nitro-2,3-dihydro-1H-indol-1-yl)-2-oxoethyl]phenyl}-1,2-dihydrophthalazin-1-one], the IC50 in experiment [1] and in experiment [2] was 0.1 to 100 nM each time.

As to `O=C(Nc1ccc(-c2n[nH]c(=O)c3ccccc23)cc1)c1nn(CCO)c2ccccc12` [Example 155, 1-(2-hydroxyethyl)-N-[4-(4-oxo-3,4-dihydrophthalazin-1-yl)phenyl]-1H-indazole-3-carboxamide], the half-inhibitory concentration (IC50) in experiment [1] and in experiment [2] was 0.1 to 100 nM in each case.

Turning to `COc1cc(NC(=O)c2nn(CC3CCOC3)c3ccccc23)ccc1-c1n[nH]c(=O)c2ccccc12` (centres unmarked) [Example 348, N-(3-Methoxy-4-(4-oxo-3,4-dihydrophthalazin-1-yl)phenyl)-1-((tetrahydrofuran-3-yl)methyl)-1H-indazole-3-carboxamide], the IC50 in experiment [1] lay within 101 to 1000 nM; in experiment [2], 0.1 to 100 nM.

On to `O=C(Nc1ccc(-c2n[nH]c(=O)c3ccccc23)cc1)c1n[nH]c2ccc(Cl)cc12` [Example 114, 5-chloro-N-[4-(4-oxo-3,4-dihydrophthalazin-1-yl)phenyl]-1H-indazole-3-carboxamide], for which the IC50 in experiment [1] was in the range of 101 to 1000 nM; in experiment [2], 0.1 to 100 nM.

Turning to `COc1ccc2[nH]c(C(=O)Nc3ccc(-c4n[nH]c(=O)c5ccccc45)cc3)cc2c1` [Example 125, 5-methoxy-N-[4-(4-oxo-3,4-dihydrophthalazin-1-yl)phenyl]-1H-indole-2-carboxamide], the IC50 in experiment [1] and in experiment [2] was 0.1 to 100 nM in each case.

As for “N-[4-(4-oxo-3,4- dihydrophthalazin-1- yl)phenyl]-1-[3- ylmethyl]-1H-indazole- 3-carboxamide [Example 170]”, the IC50 in experiment [1] and in experiment [2] was 0.1 to 100 nM each time.

As for `COC(=O)N1CCC(Cn2nc(C(=O)Nc3ccc(-c4n[nH]c(=O)c5ccccc45)cc3)c3ccccc32)CC1` [Example 344, Methyl 4-((3-((4-(4-oxo-3,4-dihydrophthalazin-1-yl)phenyl)carbamoyl)-1H-indazol-1-yl)methyl)piperidine-1-carboxylate], the IC50 in experiment [1] and in experiment [2] was 0.1 to 100 nM throughout.
